# US12473250B2, “Molecular design of new antibiotics and antibiotic adjuvants against MCR strains” (priority 2019, dated 2025)
# Legend:
# [1] = Calcein leakage from large unilamellar vesicles; settings: vesicles of 100 nm, DOPE/DOPG=3/1
# From the text: FIG. 20 refers to a graph showing calcein leakage of LC100 and LC101 using large unilamellar vesicles of 100 nm. The lipid composition of the vesicle is DOPE/DOPG=3/1, mimicking the bacterial inner membrane. […] Further increase of LC100 or LC101 leads to decrease in the florescence because of a fluorescence quenching effect.
# [2] = test system: colistin resistant MCR (+) E. Coli strains; assay: Synergy study: colistin MIC in the presence of compound; format: cell-based; settings: against mcr-1 bacteria; in words
# Procedure, shortened: (§1)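 After 24 hours, MIC was read as the lowest concentration without visible growth. Drugs were tested singly and in combination by CLSI broth microdilution, equal-amount colistin:LC compound mixtures serially diluted 2-fold at a fixed synergy concentration.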
# [3] = test system: colistin resistant MCR (−) E. Coli strains; assay: as above; format: cell-based; settings: compound at 10 μg (Table 2a: 10 ug/ml)
# Procedure, shortened: as §1
# [4] = test system: colistin resistant MCR (−) E. Cloacae strain 7023456439; assay: as above; format: cell-based; settings: strain 7023456439 E. Cloacae, compound at 10 μg (Table 2a: 10 ug/ml)
# Procedure, shortened: as §1
# [5] = test system: colistin resistant MCR (+) E. Coli strains; assay: MIC, broth microdilution, compound alone; format: cell-based; settings: compound alone
# Procedure, shortened: (§2)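 Wells held ~5×10^5 CFU/mL of bacteria prepared to 0.5 McFarland from overnight TSA colonies and exposed to serially diluted agents, following modified CLSI microdilution. After 24 h at 35 °C, growth judged by turbidity (OD600 possible); 99% inhibition sets the MIC.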
# [6] = test system: colistin resistant MCR (−) E. Coli strains; assay: MIC, broth microdilution, compound alone; format: cell-based
# Procedure, shortened: as §2
# [7] = test system: colistin resistant MCR (−) E. Cloacae strain 7023456439; assay: MIC, broth microdilution, compound alone; format: cell-based; settings: strain 7023456439 E. Cloacae
# Procedure, shortened: as §2
# [8] = test system: Gram positive bacteria (SA and MRSA strains); assay: Antimicrobial effect on Gram positive bacteria (Table 8); format: cell-based; parameters: key to antimicrobial effect on Gram positive bacteria: MIC (concentration giving 99% inhibition), concentrations in μg; settings: compound alone
# Description: MIC experiments of the antimicrobial agents were determined by a modified broth microdilution method in accordance with the Clinical and Laboratory Standards Institute (CLSI) guidelines using 96 well culture plates. In brief, serial dilutions of all plates were prepared at different concentrations (μg). The inoculum suspension was prepared by adding isolated colonies from a 18-20 hours on TSA plate into phosphate buffer (0.31 mM, pH 7.2) or in water for injection (BBraun) and adjusting the suspension to a turbidity equivalent to 0.5 McFarland Standard. Each well contained a final bacterial concentration of approximately 5×10^5 colony forming units (CFU)/mL. The plate was covered and incubated at 35° C. for 24 hours. […] For the microdilution plates, turbidity in wells can be measured at OD600 using TECAN infinite M200Pro. MIC was determined as […] concentration that gives a 99 percent inhibition.
# The antimicrobial activity of the inventive combination was also tested against Gram positive bacteria, including the multi-drug resistant strains, such as MRSA. […] This means the combination of LC100/LC101 with colistin has broad antimicrobial spectrum, being active against both Gram positive and Gram negative bacteria.
# [9] = test system: 6083655967 [MCR 1+; E.Coli]; assay: Synergistic study between LC100 or LC101 with B2088; format: cell-based; settings: for Combination MIC: strain 6083655967, value of each component
# Description: The MICs of the individual drugs and LC compound in combinations were determined using the broth microdilution technique as recommended by the CLSI whereby the two anti-microbial agents were added in an equal amount. (e.g.: 50 μL of Colistin: 50 μL of LC compounds). Diluted media containing compounds and antibiotics will be serially diluted 2-fold, and LC compounds and antibiotics alone or in combination will be assayed at fixed synergy concentration. In all cases, the lowest concentration at which no visible growth occurred was be recorded to be the MIC value of individual and combined antibacterial agents. The results were obtained after 24 hours of incubation.
# Using the combination of LC100 and colistin, the activity of a broad range of strains was further tested (Table 7).
smiles,measurement,setting,value
COC(=O)C(CCCNC(=N)N)NC(=O)COc1ccc(/C=C/C(=O)c2ccc(OCC(=O)NC(CCCNC(=N)N)C(=O)OC)c(CC=C(C)C)c2O)cc1 (stereo not drawn) [LC101],calcein leakage / disruption of vesicles,[1],significant florescence was detected
same,synergy with colistin,[2],excellent synergy
same,Colistin MIC in the presence of the compound,"[3]; strain 6083672926, MCR(−)",<0.195 µg/mL
same,Colistin MIC in the presence of the compound,"[3]; strain 7023446108, MCR(−)",<0.195 µg/mL
same,Colistin MIC in the presence of the compound,"[3]; strain 7033607097, MCR(−)",<0.195 µg/mL
same,Colistin MIC in the presence of the compound,[4],>12.5 µg/mL
same,MIC,"[5]; strain 6075066346, MCR (+)",25 µg/mL
same,MIC,"[5]; strain 6083655967, MCR (+)",25 µg/mL
same,MIC,"[5]; strain 6103645107, MCR (+)",25 µg/mL
same,MIC,"[5]; strain 6123520276, MCR (+)",50 µg/mL
same,MIC,"[5]; strain 7013177695, MCR (+)",25 µg/mL
same,MIC,"[5]; strain 7023436560, MCR (+)",25 µg/mL
same,MIC,"[5]; strain 7023444207, MCR (+)",25 µg/mL
same,MIC,"[6]; strain 6083672926, MCR (−)",25 µg/mL
same,MIC,"[6]; strain 7023446108, MCR (−)",25 µg/mL
same,MIC,"[6]; strain 7033607097, MCR (−)",50 µg/mL
same,MIC,[7],>50 µg/mL
same,activity against Gram positive strains,[8]; in words,good activity
same,antimicrobial effect on Gram positive bacteria,[8]; strain MRSA ATCC 43300,6.25
same,antimicrobial effect on Gram positive bacteria,[8]; strain MRSA ATCC 700699,6.25
same,antimicrobial effect on Gram positive bacteria,[8]; strain MRSA DM 21455,3.125
same,antimicrobial effect on Gram positive bacteria,[8]; strain SA ATCC 6538,3.125
same,antimicrobial effect on Gram positive bacteria,[8]; strain SA ATCC 29213,3.125
same,antimicrobial effect on Gram positive bacteria,[8]; strain SA DM 4400R,3.125
same,Combination MIC,[9]; combination B2088 (Ac) + LC 101,2 µg/mL
same,Combination MIC,[9]; combination B2088 + LC 101,2 µg/mL
same,level of synergistic effect with B2088,[9]; killing E. coli with the mcr-1 mutation,1 µg/mL
